The text below walks through data of patent publication US8871929B2, “Fused-imidazoyl compounds useful as antimicrobial agents” (Merck Sharp & Dohme Corp., priority 2010, dated 2014).

In brackets after ≈: the same amount, converted by molar mass.

As usually defined, the MIC is the smallest concentration in the dilution series that meets the test's criterion for growth inhibition.

This experiment concerns Staphylococcus aureus ATCC29213. As to the kind of experiment: Susceptibility testing (MIC determination), broth microdilution. In kind it is cell-based. To be noted: Mueller Hinton broth, 96-well plate, overnight incubation at 35° C., read-out: MIC Staph. aureus ATCC-29213. Here is the method: Compounds useful in the method of the invention were investigated for their utility as antimicrobial agents in the following assay. Susceptibility testing (MIC determinations) was performed using the standard broth microdilution methodology precisely as described in the Clinical Laboratory Standards Institute Document M7-A6; Methods for Dilution Antimicrobial Susceptibility Tests for Bacteria That Grow Aerobically; […] To perform the test, a series of 0.1 ml media in a 96-well plate is prepared with Mueller Hinton broth to which various concentrations of the test compound are added. The media are then inoculated with a standardized suspension of the test organism, Staphylococcus aureus ATCC29213. After overnight incubation at 35° C., the tests are examined and the minimal inhibitory concentration (MIC) is determined. MIC is defined as the lowest concentration of an antimicrobial agent that prevents visible growth of a microorganism in the broth microdilution susceptibility test
On the technique in general: Dilution methods test growth across graded concentrations, often in twofold steps.
With `CN(C)c1ccc(-c2nc3ccccn3c2NCC(=O)N2CCN(c3ccccc3Cl)CC2)cc1` [Compound 31], the MIC was determined as 5 µg/mL (≈ 10.2 µM).
In the case of `O=C(CNc1c(-c2ccc(N3CCCC3)nc2)nc2cnccn12)N1CCN(c2c(Cl)cncc2Cl)CC1` [Compound 9], the MIC is 0.46 µg/mL (≈ 0.833 µM).
Take `CC(C)c1ccc(-c2nc3cnccn3c2NCC(=O)N2CCN(c3c(Cl)cccc3Cl)CC2)cc1` [Compound 65]: the MIC came out at 1 µg/mL (≈ 1.91 µM).
Then `CN1CCCc2cc(-c3nc4cnccn4c3NCC(=O)N3CCN(c4c(Cl)cncc4Cl)CC3)ccc21` [Compound 13], with 0.96 µg/mL (≈ 1.74 µM); and `CC(C)c1ccc(-c2nc3cnccn3c2NCC(=O)N2CCN(c3ccccc3C#N)CC2)cc1` [Compound 66], with 8 µg/mL (≈ 16.7 µM).
As for `O=C(CNc1c(-c2ccc(N3CCOCC3)cc2)nc2ccc(Cl)cn12)N1CCN(c2c(Cl)cncc2Cl)CC1` [Compound 81], the figure is 0.25 µg/mL (≈ 0.416 µM); as for `Cc1ccccc1C1CCN(C(=O)CNc2c(-c3ccc(N4CCCC4)cc3)nc3ccccn23)CC1` [Compound 43], 8 µg/mL (≈ 16.2 µM).
